# Measured values as given in US12134788B2, “Engineered prephenate dehydrogenases and arogenate dehydrogenases and methods of using the same” (Wisconsin Alumni Research Foundation, priority 2017, dated 2024).
# Where a chain is given by its changes, count along the chain named. Values joined by “and” are separate entries in the source; they are usually repeats but may differ in a detail not shown here. Equal values may be shown once. Read-outs that look alike come from different tables or passages of the source.
# Assays:
# [1] = biological target: T1, Medicago truncatula MtncADH variant D220C, SEQ ID NO: 10 (Medicago truncatula, UniProt A0A217FAR3, D220C); assay: ADH and PDH assay: steady-state kinetics and Tyr inhibition, MtncADH D220C; type: biochemical; conditions: kcat/Km
# T1 construct: D220C by site-directed mutagenesis
# T1 sequence (A0A217FAR3 1-266 D220C): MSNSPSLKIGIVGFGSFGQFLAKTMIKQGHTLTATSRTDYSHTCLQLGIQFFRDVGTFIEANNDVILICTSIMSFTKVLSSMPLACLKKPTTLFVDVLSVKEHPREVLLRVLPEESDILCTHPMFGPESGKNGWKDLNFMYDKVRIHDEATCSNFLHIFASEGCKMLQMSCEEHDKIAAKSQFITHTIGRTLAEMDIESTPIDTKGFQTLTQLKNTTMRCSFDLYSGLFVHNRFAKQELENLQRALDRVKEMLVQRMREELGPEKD
# Description: (§1) Kinetic parameters of purified recombinant proteins were determined from assays conducted at varying arogenate (19.5 μM-5 mM) and prephenate concentration (23.4 μM-6 mM). Standard assay conditions were 25 mM HEPES pH 7.6, 50 mM KCl and 10% (v/v) ethylene glycol, and 0.5 mM NADP^+ with varied substrate, concentrations. Reactions were initiated by addition of enzyme and incubated at 37° C. monitored every 10-15 seconds at […] using a microplate reader (Tecan Genios). Kinetic parameters were determined by fitting initial velocity data to the Michaelis-Menten equation using the Origin software (OriginLab).
# (§2) Arogenate was prepared by enzymatic conversion of prephenate (Sigma-Aldrich) as previously reported^56. For Tyr inhibition assays, Tyr was dissolved in a slightly basic solution (0.025 N NaOH) due to solubility issues, thus the concentration of lysis buffer was increased to 500 mM HEPES final concentration to buffer against the changes by addition of Tyr in the reaction. Reactions containing varying amounts of Tyr (10 μM-8 mM) with 0.5 mM NADP^+ and either 1 mM arogenate or 0.8 mM prephenate were monitored as above.
# [2] = biological target: T2, GmPDH1 (Gm18g02650), soybean (Glycine max) prephenate dehydrogenase, wild type (Glycine max, UniProt I1MYY4); assay: ADH and PDH assay: steady-state kinetics and Tyr inhibition, GmPDH1 wild type; type: biochemical
# T2 construct: homodimer
# T2 sequence (I1MYY4 1-271): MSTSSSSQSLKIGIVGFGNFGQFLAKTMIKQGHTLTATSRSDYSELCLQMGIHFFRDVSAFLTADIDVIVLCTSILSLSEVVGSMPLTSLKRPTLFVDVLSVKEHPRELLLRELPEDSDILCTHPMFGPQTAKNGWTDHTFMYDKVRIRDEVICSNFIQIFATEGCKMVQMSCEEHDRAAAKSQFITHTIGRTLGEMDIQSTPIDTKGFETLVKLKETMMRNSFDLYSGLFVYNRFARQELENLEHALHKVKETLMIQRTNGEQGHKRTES
# Description: as §1
# as §2, with “Reactions containing varying amounts of Tyr (10 μM-8 mM) with 0.5 mM NADP^+ and either 1 mM arogenate or 0.8 mM prephenate were monitored as above.” left out
# [3] = test system: Peanut PDH/ADH (AipaensisVYE8T), Arachis ipaensis, wild type; assay: ADH and PDH assay: steady-state kinetics and Tyr inhibition, peanut PDH/ADH; type: biochemical
# Description: as §1, §2
# [4] = biological target: T3, Glycine max GmPDH1 variant N222D, SEQ ID NO: 2 (Glycine max, UniProt I1MYY4, N222D); assay: ADH and PDH assay: steady-state kinetics and Tyr inhibition, GmPDH1 N222D; type: biochemical, Glycine max (soybean)
# T3 sequence (I1MYY4 1-271 N222D): T2 sequence (I1MYY4 1-271) with N222D
# Description: as §1, §2
# [5] = biological target: T4, Medicago truncatula MtPDH variant C220D, SEQ ID NO: 1 (Medicago truncatula, UniProt A0A0A0R205, C220D); assay: ADH and PDH assay: steady-state kinetics and Tyr inhibition, MtPDH C220D; type: biochemical; conditions: compared to wild-type MtPDH
# T4 sequence (A0A0A0R205 1-268 C220D): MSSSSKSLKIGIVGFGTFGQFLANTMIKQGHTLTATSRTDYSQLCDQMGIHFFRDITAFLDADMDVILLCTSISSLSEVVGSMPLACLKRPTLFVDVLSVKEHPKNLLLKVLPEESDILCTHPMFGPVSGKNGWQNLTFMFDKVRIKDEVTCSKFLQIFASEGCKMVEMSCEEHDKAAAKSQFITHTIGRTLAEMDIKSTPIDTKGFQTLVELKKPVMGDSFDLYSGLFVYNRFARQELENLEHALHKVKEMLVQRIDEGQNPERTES
# Description: as §1, §2
# [6] = biological target: T5, MtPDH (MtPDH1; Mt3g071980), Medicago truncatula prephenate dehydrogenase, wild type (Medicago truncatula, UniProt A0A0A0R205); assay: ADH and PDH assay: steady-state kinetics and Tyr inhibition, MtPDH wild type; type: biochemical; conditions: preference for prephenate
# T5 sequence (A0A0A0R205 1-268): T4 sequence (A0A0A0R205 1-268 C220D) with D220C
# Description: as §1
# as §2, with “Reactions containing varying amounts of Tyr (10 μM-8 mM) with 0.5 mM NADP^+ and either 1 mM arogenate or 0.8 mM prephenate were monitored as above.” left out
# [7] = test system: Methanosaeta harundinacea MhTyrAp variant Q227E; assay: Kinetic analysis of MhTyrAp Q227E mutant; type: biochemical
# Description: (§3) FIGS. 14A-14B show a kinetic analysis of MhTyrAp wild-type and Q227E mutant enzymes. Kinetic analysis was performed with MhTyrAp wild-type (filled circle) and Q227E mutant (open square) enzymes using various concentrations of prephenate (FIG. 14A) and arogenate (FIG. 14B). Initial velocity values at each substrate concentration were fit to the Michaelis-Menten equation using Origin software. Kinetic analyses were conducted for MhTyrA wild-type using 3.41 μg of purified recombinant enzyme, and 4.56 μg and 2.28 μg of purified recombinant Q227E using prephenate and arogenate, respectively.
# (§4) ADH and PDH assays were performed using purified recombinant enzymes for SsTyrA and MhTyrA Wt and Q227E mutant, while the E. coli cell lysate was used for OiTyrA as expression and purification of this enzyme was unsuccessful. Reactions contained 0.8 mM substrate (arogenate or prephenate) and 0.8 mM cofactor (NADP+ or NAD+) together with reaction buffer (25 mM HEPES pH 7.6, 50 mM KCl, 10% (v/v) ethylene glycol). For OiTyrA assays containing cell lysates, reactions were incubated for 45 minutes and analyzed using HPLC as previously reported (Schenck et al., 2015). For pure enzymes, reactions were monitored every 10-15 seconds for reduced cofactor at A340 nm using a microplate reader (Tecan Genios). Kinetic parameters of purified recombinant enzymes were determined from assays containing varying concentrations of arogenate (39.1 μM-5 mM) or prephenate (39.1 μM-5 mM) substrate and monitored 10-15 seconds for reduced cofactor at A340 nm using a microplate reader (Tecan Genios). Kinetic parameters were determined by fitting initial velocity data to the Michaelis-Menten equation using Origin software (OriginLab) from technical replicate assays (n=3). Arogenate substrate was prepared by enzymatic conversion of prephenate (Sigma-Aldrich). All enzyme assays were conducted at a reaction time and protein concentration that were in the linear range and proportional to reaction velocity.
# [8] = test system: MhTyrA (MhTyrAp; KUK94425.1), Methanosaeta harundinacea TyrA, wild-type; assay: Kinetic analysis of MhTyrAp wild-type; type: biochemical; conditions: NADP+ cofactor
# Description: as §3, §4
# [9] = biological target: T6, Glycine max GmncADH variant D218N (Glycine max, UniProt I1M7P5, D218N); assay: ADH and PDH assay: steady-state kinetics and Tyr inhibition, GmncADH D218N; type: biochemical, Glycine max (soybean); conditions: versus wild-type GmncADH
# T6 construct: D218N by site-directed mutagenesis
# T6 sequence (I1M7P5 1-266 D218N): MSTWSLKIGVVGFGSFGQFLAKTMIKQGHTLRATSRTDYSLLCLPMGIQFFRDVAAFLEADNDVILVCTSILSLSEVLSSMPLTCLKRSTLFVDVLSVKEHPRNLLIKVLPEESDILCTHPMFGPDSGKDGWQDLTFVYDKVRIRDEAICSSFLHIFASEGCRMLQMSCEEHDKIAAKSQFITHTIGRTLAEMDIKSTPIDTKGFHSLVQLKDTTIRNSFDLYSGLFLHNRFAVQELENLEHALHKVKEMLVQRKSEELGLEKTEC
# Description: as §1, §2
# [10] = biological target: T7, MtncADH (Mt5g083530), Medicago truncatula noncanonical arogenate dehydrogenase, wild type (Medicago truncatula, UniProt A0A217FAR3); assay: ADH and PDH assay: steady-state kinetics and Tyr inhibition, MtncADH wild type; type: biochemical; conditions: kcat/Km
# T7 construct: wild type
# T7 sequence (A0A217FAR3 1-266): T1 sequence (A0A217FAR3 1-266 D220C) with C220D
# Description: as §1, §2
# [11] = biological target: T8, GmncADH (Gm14g05990), soybean (Glycine max) noncanonical arogenate dehydrogenase, wild type (Glycine max, UniProt I1M7P5); assay: ADH and PDH assay: steady-state kinetics and Tyr inhibition, GmncADH wild type; type: biochemical; conditions: 0.5 mM NADP^+, pH 7.6, 37° C.
# T8 construct: wild type
# T8 sequence (I1M7P5 1-266): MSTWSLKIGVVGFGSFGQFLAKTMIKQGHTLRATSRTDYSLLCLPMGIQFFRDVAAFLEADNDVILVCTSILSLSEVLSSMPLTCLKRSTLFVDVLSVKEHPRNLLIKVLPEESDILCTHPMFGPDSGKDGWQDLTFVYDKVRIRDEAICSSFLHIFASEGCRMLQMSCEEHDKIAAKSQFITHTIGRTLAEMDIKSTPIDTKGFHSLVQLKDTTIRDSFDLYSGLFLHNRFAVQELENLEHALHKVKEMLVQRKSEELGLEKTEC
# Description: as §1, §2
# [12] = NADP+ cofactor, pH 7.6, read-out: Km
smiles,measurement,setting,value
O=C(O)C(=O)CC1(C(=O)O)C=CC(O)C=C1 (stereo not shown) [prephenate],fold preference for prephenate over arogenate,[1],1.7 fold
same,kcat,"[2]; 0.5 mM NADP^+, pH 7.6, 37° C.",30.4 s⁻¹
same,"fold higher kcat/Km, prephenate versus arogenate",[2]; preference for prephenate,139 fold
same,Km,"[3]; 0.5 mM NADP^+, pH 7.6, 37° C.",190 ± 10 µM
same,kcat,"[3]; 0.5 mM NADP^+, pH 7.6, 37° C.",2.8 ± 0.2 s⁻¹
same,kcat/Km,"[3]; 0.5 mM NADP^+, pH 7.6, 37° C.","14,740 M^−1 s^−1"
same,kcat/Km,"[3]; FIG. 7A, with NADP^+",14.9 mM⁻¹ s⁻¹
same,fold reduction in kcat/Km with prephenate,[4]; versus wild-type GmPDH1,115 fold
same,fold higher Km,[5],31 fold
same,"fold higher kcat/Km, prephenate versus arogenate",[6],21 fold
same,kcat,"[7]; NADP+ cofactor, pH 7.6",0.285 ± 0.17 s⁻¹
same,kcat/Km,"[7]; NADP+ cofactor, pH 7.6",100 M⁻¹ s⁻¹ and 107 ± 10 M⁻¹ s⁻¹
same,Km,[7]; [12],2700 µM and 2670 µM
same,Km,[7]; read-out: Km for prephenate,2400 µM
same,fold increase in Km for prephenate,[7]; versus wild-type,~10 fold
same,fold reduction of catalytic efficiency (kcat/Km),[7]; versus wild-type,60 fold
same,Km,[8],378 µM
same,Km,[8]; pH 7.6,378 ± 20 µM
same,kcat,[8]; pH 7.6,2.4 s⁻¹ and 2.44 ± 0.38 s⁻¹
same,kcat/Km,[8]; pH 7.6,6400 M⁻¹ s⁻¹ and 6440 ± 20 M⁻¹ s⁻¹
N[C@@H](CC1(C(=O)O)C=CC(O)C=C1)C(=O)O (stereo partly shown) [arogenate],Km,"[3]; 0.5 mM NADP^+, pH 7.6, 37° C.",280 ± 30 µM
same,kcat,"[3]; 0.5 mM NADP^+, pH 7.6, 37° C.",3.2 ± 0.1 s⁻¹
same,kcat/Km,"[3]; 0.5 mM NADP^+, pH 7.6, 37° C.","11,430 M^−1 s^−1"
same,kcat/Km,"[3]; FIG. 7A, with NADP^+",11.6 mM⁻¹ s⁻¹
same,fold reduction of kcat/Km for ADH,[9],~6 fold
same,fold more efficient (preference) with arogenate over prephenate,[10],"~6,200 fold and 6,190 fold"
same,kcat,[11],27.7 s⁻¹
same,kcat,"[4]; 0.5 mM NADP^+, pH 7.6, 37° C.",27.8 s⁻¹
same,fold lower Km,[5],3 fold
same,fold higher Km than that of wild-type for prephenate,[7],10 fold
same,fold higher catalytic efficiency with arogenate than with prephenate,[7],roughly 2 fold
same,kcat,"[7]; NADP+ cofactor, pH 7.6",0.704 ± 0.06 s⁻¹
same,kcat/Km,"[7]; NADP+ cofactor, pH 7.6",200 M⁻¹ s⁻¹ and 213 ± 10 M⁻¹ s⁻¹
same,Km,[7]; [12],3300 µM and 3290 µM
